Experimental data taken from patent US20240368092A1, “2,4-Dihydro-3H-1,2,4-Triazol-3-One P2X7 Antagonists” (Breye Therapeutics ApS, priority 2021, published 2024).

Key:
Assay type in all cases: cell-based
[1] = target: T1, human P2X7 channel (Homo sapiens, UniProt Q99572); assay: human P2X7 channel assay by automated patch-clamp (QPatch 16X); conditions: HEK-293 cells expressing P2X7; current evoked by 100 microM BzATP; whole-cell, held at -80 mV; read-out: human Q-Patch (activity range)
T1 construct: expressed in transfected cells; host or cells: HEK-293
T1 sequence (Q99572 1-595): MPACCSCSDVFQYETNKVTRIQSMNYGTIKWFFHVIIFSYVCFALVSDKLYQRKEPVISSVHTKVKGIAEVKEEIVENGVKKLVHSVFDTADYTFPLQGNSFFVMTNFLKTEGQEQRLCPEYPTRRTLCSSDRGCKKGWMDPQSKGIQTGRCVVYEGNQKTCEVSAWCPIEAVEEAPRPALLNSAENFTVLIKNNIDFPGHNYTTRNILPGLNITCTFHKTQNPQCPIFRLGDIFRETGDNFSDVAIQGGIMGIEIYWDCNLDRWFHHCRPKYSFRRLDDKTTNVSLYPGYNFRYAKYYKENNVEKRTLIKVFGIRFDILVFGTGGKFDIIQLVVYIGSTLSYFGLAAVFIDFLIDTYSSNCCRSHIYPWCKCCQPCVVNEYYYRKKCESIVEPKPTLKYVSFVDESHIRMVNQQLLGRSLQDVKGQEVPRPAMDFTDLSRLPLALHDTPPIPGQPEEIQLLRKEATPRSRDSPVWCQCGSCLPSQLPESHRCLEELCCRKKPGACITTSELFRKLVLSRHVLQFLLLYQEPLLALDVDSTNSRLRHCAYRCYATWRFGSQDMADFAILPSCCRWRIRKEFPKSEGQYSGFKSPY
Method in brief: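 Whole-cell patch clamp on HEK-293 cells expressing P2X7, room temperature, held at −80 mV, CsF internal and NaCl external (pH 7.4). Currents evoked by 100 microM BzATP, four controls then with compound at 1, 10, 100 and 1000 nM; peak inward current normalized, IC50 from dose-response fit, reported as potency bins.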

[2] = target: T2, humanP2X7 (Homo sapiens, UniProt Q99572); assay: P2X7 channel calcium-influx assay (Fluo-8, FLIPR TETRA), human P2X7; conditions: HEK-293 cells stably transfected with P2X7; Bz-ATP at EC80; low divalent cation buffer; read-out: humanP2X7 (activity range)
T2 construct: expressed in transfected cells; host or cells: HEK-293
T2 sequence (Q99572 1-595): T1 sequence (Q99572 1-595)
Method in brief: (§1)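 HEK-293 cells stably expressing the respective species' P2X7, Fluo-8 NW loaded 1 h at RT in low divalent buffer (0.3 mM Ca2+, 0 mM Mg2+). Compound preincubated 5 min, then Bz-ATP at EC80; FLIPR calcium influx over 3 min. IC50 from % inhibition relative to reference antagonist A438079, reported as potency bins.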

[3] = target: T3, mouseP2X7 (Mus musculus, UniProt Q9Z1M0); assay: P2X7 channel calcium-influx assay (Fluo-8, FLIPR TETRA), mouse P2X7; conditions: HEK-293 cells stably transfected with P2X7; Bz-ATP at EC80; low divalent cation buffer; read-out: mouseP2X7 (activity range)
T3 construct: expressed in transfected cells; host or cells: HEK-293
T3 sequence (Q9Z1M0 1-595): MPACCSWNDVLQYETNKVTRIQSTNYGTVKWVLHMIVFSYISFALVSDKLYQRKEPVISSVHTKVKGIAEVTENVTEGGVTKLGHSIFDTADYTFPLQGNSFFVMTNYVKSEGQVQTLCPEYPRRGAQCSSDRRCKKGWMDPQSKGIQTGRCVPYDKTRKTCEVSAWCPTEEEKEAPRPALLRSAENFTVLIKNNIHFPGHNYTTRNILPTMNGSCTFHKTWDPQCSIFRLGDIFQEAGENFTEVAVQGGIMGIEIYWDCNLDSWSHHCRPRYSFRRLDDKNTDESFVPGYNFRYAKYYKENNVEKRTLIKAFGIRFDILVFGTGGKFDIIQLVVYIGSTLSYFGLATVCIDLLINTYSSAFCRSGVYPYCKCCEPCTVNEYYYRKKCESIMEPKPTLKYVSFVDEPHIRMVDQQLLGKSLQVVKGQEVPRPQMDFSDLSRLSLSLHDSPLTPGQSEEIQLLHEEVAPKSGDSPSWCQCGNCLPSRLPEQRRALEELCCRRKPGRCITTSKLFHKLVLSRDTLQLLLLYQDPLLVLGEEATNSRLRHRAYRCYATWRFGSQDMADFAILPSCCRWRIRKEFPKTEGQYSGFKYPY
Method in brief: as §1

[4] = target: T4, ratP2X7 (Rattus norvegicus, UniProt Q64663); assay: P2X7 channel calcium-influx assay (Fluo-8, FLIPR TETRA), rat P2X7; conditions: HEK-293 cells stably transfected with P2X7; Bz-ATP at EC80; low divalent cation buffer; read-out: ratP2X7 (activity range)
T4 construct: expressed in transfected cells; host or cells: HEK-293
T4 sequence (Q64663 1-595): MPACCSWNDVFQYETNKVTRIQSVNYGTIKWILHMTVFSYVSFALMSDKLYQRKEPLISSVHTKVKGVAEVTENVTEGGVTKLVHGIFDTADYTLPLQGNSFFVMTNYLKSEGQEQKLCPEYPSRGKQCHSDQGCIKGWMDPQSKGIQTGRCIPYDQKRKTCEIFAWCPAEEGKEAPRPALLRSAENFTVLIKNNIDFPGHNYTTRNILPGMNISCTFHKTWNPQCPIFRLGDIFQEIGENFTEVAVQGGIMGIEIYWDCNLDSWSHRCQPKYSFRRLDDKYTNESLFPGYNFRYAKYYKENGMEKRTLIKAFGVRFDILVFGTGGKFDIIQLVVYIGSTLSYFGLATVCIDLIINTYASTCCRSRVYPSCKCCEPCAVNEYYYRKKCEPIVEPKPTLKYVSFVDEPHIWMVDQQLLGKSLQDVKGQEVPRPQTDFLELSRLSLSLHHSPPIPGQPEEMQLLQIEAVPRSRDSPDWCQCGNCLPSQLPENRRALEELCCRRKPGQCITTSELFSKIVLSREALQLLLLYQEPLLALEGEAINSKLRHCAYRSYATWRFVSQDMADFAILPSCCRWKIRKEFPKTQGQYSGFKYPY
Method in brief: as §1

For `CCn1nc(Cc2ccccc2Cl)n(CC2CCC(F)(F)CC2)c1=O` [Example 63, 5-[(2-chlorophenyl)methyl]-4-[(4,4-difluorocyclohexyl)methyl]-2-ethyl-2,4-dihydro-3H-1,2,4-triazol-3-one], the IC50 [1] was 10 to 100 nM, the IC50 [2] was under 200 nM and the IC50 [3] was 200 to 1000 nM. For the same molecule, the IC50 [4] was under 200 nM.

Molecule `CCn1nc(CC2CCCCCC2)n(Cc2c(F)cccc2Cl)c1=O` [Example 60, 4-[(2-chloro-6-fluorophenyl)methyl]-5-(cycloheptylmethyl)-2-ethyl-2,4-dihydro-3H-1,2,4-triazol-3-one] has an IC50 [1] of 100 to 1000 nM, an IC50 [2] of 200 to 1000 nM and an IC50 [3] of 1000 to 10000 nM. It also gave an IC50 [4] of under 200 nM.

`Cn1nc(CC2CCCCC2)n(Cc2cc(-c3ncc(F)cn3)ccc2Cl)c1=O` [Example 38, 4-(2-chloro-5-(5-fluoropyrimidin-2-yl)benzyl)-5-(cyclohexylmethyl)-2-methyl-2,4-dihydro-3H-1,2,4-triazol-3-one] gave an IC50 [1] of 1000 to 10000 nM, an IC50 [2] of 200 to 1000 nM and an IC50 [3] of 1000 to 10000 nM. It also gave an IC50 [4] of 200 to 1000 nM.

In the case of `Cn1nc(Cc2c(F)cccc2Cl)n(CCO)c1=O` [Example 53, 5-(2-chloro-6-fluorobenzyl)-4-(2-hydroxyethyl)-2-methyl-2,4-dihydro-3H-1,2,4-triazol-3-one], the IC50 [1] is reported as 1000 to 10000 nM, the IC50 [2] is reported as 10000 to 30000 nM and the IC50 [3] is reported as 10000 to 30000 nM. The IC50 [4] was 10000 to 30000 nM.

Molecule `Cn1nc(Cc2ccccc2C(F)(F)F)n(CCC2CCC(F)(F)CC2)c1=O` [Example 39, 4-(2-(4,4-difluorocyclohexyl)ethyl)-2-methyl-5-(2-(trifluoromethyl)benzyl)-2,4-dihydro-3H-1,2,4-triazol-3-one] has an IC50 [1] of 100 to 1000 nM, an IC50 [2] of 200 to 1000 nM and an IC50 [3] of 1000 to 10000 nM. It also gave an IC50 [4] of 200 to 1000 nM.

`Cn1nc(Cc2ccc(F)cc2Cl)n(CC2CCC(C(F)(F)F)CC2)c1=O` (stereo not drawn) [Example 52, 5-(2-chloro-4-fluorobenzyl)-2-methyl-4-((4-(trifluoromethyl)cyclohexyl)methyl)-2,4-dihydro-3H-1,2,4-triazol-3-one] was tested, and the IC50 [1] was 100 to 1000 nM, the IC50 [2] was 200 to 1000 nM and the IC50 [3] was 1000 to 10000 nM. The IC50 [4] was under 200 nM.

With `Cn1nc(Cc2ccc(F)cc2)n(Cc2cc(-c3ncc(F)cn3)ccc2Cl)c1=O` [Example 29, 4-(2-chloro-5-(5-fluoropyrimidin-2-yl)benzyl)-5-(4-fluorobenzyl)-2-methyl-2,4-dihydro-3H-1,2,4-triazol-3-one] the IC50 [1] was 1000 to 10000 nM, the IC50 [2] was 10000 to 30000 nM and the IC50 [3] was 10000 to 30000 nM. The IC50 [4] was 10000 to 30000 nM.

`Cn1nc(Cc2ccccc2C(F)(F)F)n(CC2CCCCC2(C)C)c1=O` (stereo not drawn) [Example 23, 4-((2,2-dimethylcyclohexyl)methyl)-2-methyl-5-(2-(trifluoromethyl)benzyl)-2,4-dihydro-3H-1,2,4-triazol-3-one] was tested, and the IC50 [1] was 1000 to 10000 nM, the IC50 [2] was 200 to 1000 nM and the IC50 [3] was 200 to 1000 nM. For the same molecule, the IC50 [4] was under 200 nM.

`Cn1nc(CC2CCCCC2)n(Cc2ccccc2C(F)(F)F)c1=O` [Example 25, 5-(cyclohexylmethyl)-2-methyl-4-(2-(trifluoromethyl)benzyl)-2,4-dihydro-3H-1,2,4-triazol-3-one] showed an IC50 [1] of 100 to 1000 nM, an IC50 [2] of 1000 to 10000 nM and an IC50 [3] of 10000 to 30000 nM. For the same molecule, the IC50 [4] was 1000 to 10000 nM.

`Cn1nc(Cc2c(F)cccc2Cl)n(CC2CCC(F)(F)CC2)c1=O` [Example 3, 5-(2-chloro-6-fluorobenzyl)-4-((4,4-difluorocyclohexyl)methyl)-2-methyl-2,4-dihydro-3H-1,2,4-triazol-3-one] showed an IC50 [1] of 10 to 100 nM, an IC50 [2] of under 200 nM and an IC50 [3] of 200 to 1000 nM. The IC50 [4] was under 200 nM.

Work on `Cn1nc(Cc2c(F)cccc2Cl)n(CC2CCCCC2(C)C)c1=O` (stereo not drawn) [Example 33, 5-(2-chloro-6-fluorobenzyl)-4-((2,2-dimethylcyclohexyl)methyl)-2-methyl-2,4-dihydro-3H-1,2,4-triazol-3-one] yielded an IC50 [1] of 10 to 100 nM, an IC50 [2] of under 200 nM and an IC50 [3] of 200 to 1000 nM. The IC50 [4] was under 200 nM.

In the case of `Cn1nc(Cc2ccccc2F)n(CC2CCCCCC2)c1=O` [Example 37, 4-(cycloheptylmethyl)-5-(2-fluorobenzyl)-2-methyl-2,4-dihydro-3H-1,2,4-triazol-3-one], the IC50 [1] is reported as 100 to 1000 nM, the IC50 [2] is reported as 200 to 1000 nM and the IC50 [3] is reported as 200 to 1000 nM. It also gave an IC50 [4] of under 200 nM.

Work on `O=c1n(CC2CC2)nc(Cc2c(F)cccc2Cl)n1CC1CCC(F)(F)C1` (stereo not drawn) [Example 66, 5-[(2-chloro-6-fluorophenyl)methyl]-2-(cyclopropylmethyl)-4-[(3,3-difluorocyclopentyl)methyl]-2,4-dihydro-3H-1,2,4-triazol-3-one] yielded an IC50 [1] of 100 to 1000 nM, an IC50 [2] of 200 to 1000 nM and an IC50 [3] of 1000 to 10000 nM. The IC50 [4] was under 200 nM.

`Cn1nc(Cc2ccccc2F)n(CCC2CCC(F)(F)CC2)c1=O` [Example 46, 4-(2-(4,4-difluorocyclohexyl)ethyl)-5-(2-fluorobenzyl)-2-methyl-2,4-dihydro-3H-1,2,4-triazol-3-one] was tested, and the IC50 [1] was 1000 to 10000 nM, the IC50 [2] was 1000 to 10000 nM and the IC50 [3] was 1000 to 10000 nM. It also gave an IC50 [4] of 200 to 1000 nM.

With `Cn1nc(Cc2c(F)cccc2Cl)n(CC2CCC3(CC2)CC3)c1=O` [Example 14, 5-(2-chloro-6-fluorobenzyl)-2-methyl-4-(spiro[2.5]octan-6-ylmethyl)-2,4-dihydro-3H-1,2,4-triazol-3-one] the IC50 [1] was under 10 nM, the IC50 [2] was under 200 nM and the IC50 [3] was under 200 nM. It also gave an IC50 [4] of under 200 nM.

For `O=c1n(CC(F)(F)F)nc(Cc2c(F)cccc2Cl)n1CC1CCC(F)(F)CC1` [Example 44, 5-(2-chloro-6-fluorobenzyl)-4-((4,4-difluorocyclohexyl)methyl)-2-(2,2,2-trifluoroethyl)-2,4-dihydro-3H-1,2,4-triazol-3-one], the IC50 [1] was under 10 nM, the IC50 [2] was under 200 nM and the IC50 [3] was under 200 nM. The IC50 [4] was under 200 nM.

`Cn1nc(Cc2ccccc2F)n(CC2CCC3(CC2)CC3)c1=O` [Example 47, 5-(2-fluorobenzyl)-2-methyl-4-(spiro[2.5]octan-6-ylmethyl)-2,4-dihydro-3H-1,2,4-triazol-3-one] was tested, and the IC50 [1] was 100 to 1000 nM, the IC50 [2] was 200 to 1000 nM and the IC50 [3] was 1000 to 10000 nM. The IC50 [4] was under 200 nM.

With `Cn1nc(Cc2ccccc2C(F)(F)F)n(CC2CCC(F)(F)CC2)c1=O` [Example 18, 4-((4,4-difluorocyclohexyl)methyl)-2-methyl-5-(2-(trifluoromethyl)benzyl)-2,4-dihydro-3H-1,2,4-triazol-3-one] the IC50 [1] was 10 to 100 nM, the IC50 [2] was under 200 nM and the IC50 [3] was 1000 to 10000 nM. It also gave an IC50 [4] of under 200 nM.
